Where two headings read alike, the source gives them in different places.
How the values were obtained:
NIH3T3 cells = assay: LDH cytotoxicity assay, NIH3T3; format: cell-based; settings: NIH3T3, concentrations used in soft agar assay
Method: (§1) Soft agar colony growth assay was performed as previously described. The colonies were counted using Image-Pro Plus 7.0 software (Media Cybernetics). ATA cytotoxicity was assessed using the CyQUANT LDH Cytotoxicity Assay Kit (ThermoFisher) and was performed as per the manufacturer’s protocol.
(§2) NIH3T3 and HEK293 cells were treated with the indicated concentrations of ATA and the cytotoxicity was evaluated by calculating the amount of intracellular LDH released into the media. LDH absorbance after complete cell lysis is considered as 100% cytotoxicity and the absorbance after ATA treatment was normalized accordingly. (TIF) Click here for additional data file.

HEK293 cells = assay: LDH cytotoxicity assay, HEK293; format: cell-based; settings: HEK293, concentrations used
Method: as §1, §2

[1] = test system: TC/TEAD transcriptional activity in HEK293 cells expressing TAZ-CAMTA1; assay: TC/TEAD dual luciferase reporter assay; format: cell-based; settings: ATA 10 μM, 48 h
Method: NIH3T3 and HEK293 cells were obtained from the American Type Tissue Collection (ATCC, Manassas, VA) and cultured in DMEM containing 10% fetal bovine serum and penicillin/streptomycin. A TEAD dual luciferase reporter assay was performed as previously described. Cells were treated with vehicle control or ATA (10 μM) for 48 h before measuring the luciferase activity or processing the samples for RNA extraction. Each experiment was repeated at least 2–3 times.

TEAD4 = biological target: T1, TEAD4 (Homo sapiens, UniProt Q15561); assay: ThermoFluor assay, TEAD; format: binding; settings: protein 5 μM
T1 construct: ThermoFluor assays measuring the melting temperatures (Tm) of full-length TAZ or TEAD in the presence of ATA; strep (N, cleaved yes); made in house; host or cells: Escherichia coli BL21(DE3)pLysS
Method: To assess changes in protein stability, a dye-based thermal melting assay (ThermoFluor) was used. Purified protein (TAZ or TEAD4), ATA, and Protein Thermal Shift dye (ThermoFisher) were mixed in 96-well plates. The final concentration of the protein was 5 μM. The melting temperature was measured using LightCycler 480 (Roche). Each experiment was repeated at least twice.

[2] = test system: NIH3T3 cells expressing NRAS G12V; assay: Soft agar colony growth assay, NRAS G12V; format: cell-based
Method: as §1

[3] = biological target: T2, YAP-TEAD complex (human YAP (61-100) probe, human TEAD4 (217-434)) (Homo sapiens, UniProt Q15561); assay: YAP-TEAD fluorescence polarization assay; format: binding; settings: TEAD4 350 nM, YAP probe 25 nM; read-out: IC50, YAP-TEAD FP assay
T2 construct: made in house
Method: (§3) Human YAP (61–100), human TAZ (23–57) and mouse Vgll1 (26–51) peptide probes were used; all the probes had carboxyfluorescein labels. Human TEAD4 (217–434) was used in the assay at a concentration of 350 nM and the peptide probe concentration was 25 nM. Disruptors were titrated at concentrations ranging from 0–150 μM to the probe-TEAD complex, and the mixtures were incubated at 25°C for 20 min. Then, polarization measurements were taken using a Victor3 (PerkinElmer) plate reader.

[4] = test system: NIH3T3 cells expressing TAZ-CAMTA1; assay: Soft agar colony growth assay, TAZ-CAMTA1; format: cell-based
Method: as §1

[5] = biological target: T3, TAZ-TEAD complex (full-length His-TAZ and FLAG-TEAD4) (Homo sapiens, UniProt Q15561); assay: TAZ-TEAD AlphaLISA assay; format: binding; settings: 10 nM TAZ, 15 nM TEAD4
T3 construct: human TEAD4 (1–434) (UniProt—Q15561); strep (N, cleaved yes); made in house; host or cells: Escherichia coli BL21(DE3)pLysS
From the text: The cDNAs of human TEAD4 (1–434) (UniProt—Q15561) and TAZ (UniProt—Q9GZV5) were codon-optimized according to a proprietary algorithm developed by DAPCEL, Inc, synthesized, and inserted into the pET-3a vector between restriction sites NdeI and BamHI (GenScript). The final construct contained a N-terminal strep-TEV-FLAG tag for TEAD4, a 6x His tag at the N-terminus and a strep tag at the C-terminus of TAZ (GenScript).
Full-length TAZ and TEAD proteins were used in this assay. The codon-optimized cDNAs yielded sufficient protein amounts to carry out the high-throughput screen (S1A Fig).
Purified full-length His-TAZ and FLAG-TEAD4 proteins were mixed with nickel chelate AlphaLISA Acceptor Beads and anti-FLAG Alpha Donor Beads (PerkinElmer) in alpha assay buffer (10mM Tris pH 8.0, 150mM NaCl, 0.1% BSA, 0.01% Tween 20, 10 mM DTT). To determine the optimum protein concentration that produced the highest total signal intensity, His-TAZ was used at a concentration range of 0 nM to 20 nM and FLAG-TEAD4 at 0.1 nM to 1000 nM. The maximal signal occurred at 10 nM TAZ and 15 nM TEAD4 (S1B Fig). Then, compounds from the library plates were added at a final concentration of 10 μM. The mixtures were incubated in the dark for 2h at room temperature and emission at 615 nm was measured using the alpha-compatible EnSpire (PerkinElmer) and Synergy Neo2 (BioTek) multimode plate readers. […]

[6] = test system: NIH3T3 expressing TAZ S89A; assay: Soft agar colony growth assay, TAZ S89A; format: cell-based
Method: as §1

[7] = biological target: T4, TAZ-TEAD complex (human TAZ (23-57) probe, human TEAD4 (217-434)) (Homo sapiens, UniProt Q15561); assay: TAZ-TEAD fluorescence polarization assay; format: binding; settings: TEAD4 350 nM, probe 25 nM
T4 construct: made in house
Method: as §3

T1 sequence (Q15561 whole entry): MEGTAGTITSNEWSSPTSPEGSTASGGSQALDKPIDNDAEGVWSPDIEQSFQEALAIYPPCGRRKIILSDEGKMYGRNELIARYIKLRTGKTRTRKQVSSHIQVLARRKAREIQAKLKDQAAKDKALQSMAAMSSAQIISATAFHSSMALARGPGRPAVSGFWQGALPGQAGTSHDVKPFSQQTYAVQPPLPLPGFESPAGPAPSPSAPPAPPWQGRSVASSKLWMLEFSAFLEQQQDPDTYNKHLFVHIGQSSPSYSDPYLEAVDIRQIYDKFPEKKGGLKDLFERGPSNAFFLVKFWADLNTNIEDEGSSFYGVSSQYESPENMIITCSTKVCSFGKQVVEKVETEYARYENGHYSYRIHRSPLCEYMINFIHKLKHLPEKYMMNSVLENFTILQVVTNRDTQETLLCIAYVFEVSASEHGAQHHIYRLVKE
T4 sequence (Q15561 217-434, one chain of several): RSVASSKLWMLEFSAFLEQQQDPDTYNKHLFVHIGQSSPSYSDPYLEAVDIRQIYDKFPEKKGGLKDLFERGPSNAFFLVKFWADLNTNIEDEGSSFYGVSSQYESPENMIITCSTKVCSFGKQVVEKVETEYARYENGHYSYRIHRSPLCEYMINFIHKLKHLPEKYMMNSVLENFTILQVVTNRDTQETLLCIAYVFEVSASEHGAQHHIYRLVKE
T3 sequence (Q15561 whole entry, one chain of several): as the sequence (Q15561 whole entry) above
T2 sequence (Q15561 217-434, one chain of several): as the sequence (Q15561 217-434, one chain of several) above

O=C(O)C1=CC(=C(c2ccc(O)c(C(=O)O)c2)c2ccc(O)c(C(=O)O)c2)C=CC1=O [ATA, aurintricarboxylic acid]
cytotoxicity, LDH release (NIH3T3 cells): did not show cytotoxicity | cytotoxicity, LDH release (HEK293 cells): did not show cytotoxicity | TC-dependent increase of TEAD luciferase reporter activity [1]: significantly reduced | shift in Tm in the ThermoFluor assay (in words) (TEAD4; TAZ or TEAD): increased the Tm | melting temperature (Tm) of TEAD + ATA (TEAD4; full-length TEAD): 54.8 °C | NRAS G12V-induced soft agar growth [2]: unaffected | IC50 [3]: 160 µM | TC-driven soft agar colony growth [4]: dose-dependent reduction | IC50 [5]: 35 nM | soft agar growth driven by TAZ S89A [6]: inhibited soft agar growth | IC50 ([7]; acylated TEAD, read-out: IC50, TAZ-TEAD FP assay, acylated TEAD): 68 µM | IC50 ([7]; deacylated TEAD, read-out: IC50, TAZ-TEAD FP assay, deacylated TEAD): 72 µM

From article PMC9007350, “Aurintricarboxylic acid is a canonical disruptor of the TAZ-TEAD transcriptional complex” (PLoS ONE, 2022)
